From patent US20230085307A1, “PYRIDAZINONE COMPOUND AND HERBICIDE” (NISSAN CHEMICAL CORPORATION, priority 2019, published 2023)

What was measured:
false cleavers = assay: Test Example 4: herbicidal effect by soil treatment (Table 19, symbol Q); format: in vivo, false cleavers (Galium spurium)
From the text: [Test Example 4] Herbicidal Effect Test by Soil Treatment
Sterilized diluvial soil was placed in a plastic box having a length of 21 cm, a width of 13 cm, and a depth of 7 cm. The seeds of each of southern crabgrass, green foxtail, barnyard grass, wild oat, blackgrass, Italian ryegrass, windgrass, velvetleaf, redroot pigweed, lambsquarters, chickweed, false cleavers, persian speedwell, corn, soybean, rice, wheat, beet, and rapeseed were sowed in a spot-like manner and covered with the soil having a thickness of about 1.5 cm. Subsequently, the emulsion agent of the compound of the present invention prepared according to Formulation Example 2 was diluted with water so as to achieve a predetermined herbicide amount, and the diluted emulsion agent was uniformly applied to the surface of the soil with a small-sized spray. The plastic box was placed in a greenhouse at 25° C. to 30° C. for growth of the plants. Three weeks after the herbicide application, the effect of the herbicide on each plant was evaluated according to the criteria of Test Example 1.

windgrass [1] = assay: Test Example 4: herbicidal effect by soil treatment (Table 19, symbol L); format: in vivo, windgrass (Apera spica-venti)
Procedure, shortened: (§1)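 Scoring uses the grading scale of an earlier test, three weeks post-application. Treatment consists of spraying a diluted emulsion formulation across the surface of sterilized diluvial soil in which seeds are buried near 1.5 cm deep; boxes are kept in a greenhouse between 25° C. and 30° C.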

wild oat [2] = assay: Test Example 5: herbicidal effect by foliage application, plastic box (Table 20, symbol I); format: in vivo, wild oat (Avena fatua); conditions: evaluated three weeks after application
Procedure, shortened: (§2)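 Post-emergence foliar test in sterilized diluvial soil. Compound applied as water-diluted emulsion at a predetermined rate to 14-day-old plants; evaluation at three weeks.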

velvetleaf [3] = assay: Test Example 5: herbicidal effect by foliage application, plastic box (Table 20, symbol M); format: in vivo, velvetleaf (Abutilon theophrasti); conditions: evaluated three weeks after application
Procedure, shortened: as §2

blackgrass [4] = assay: Test Example 5: herbicidal effect by foliage application, plastic box (Table 20, symbol J); format: in vivo, blackgrass (Alopecurus myosuroides); conditions: evaluated three weeks after application
Procedure, shortened: as §2

Chinese sprangletop = assay: Test Example 3: herbicidal effect by foliage application, Wagner pot (Table 18, symbol D); format: in vivo, chinese sprangletop (Leptochloa chinensis)
Procedure, shortened: (§3)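 Plants were sown in alluvial soil held under 0.1–0.5 cm standing water and grown 14 days in a greenhouse at 25–30 °C. An emulsifiable formulation, water-diluted to the set dose, was then sprayed onto the foliage, and effects were scored three weeks later using previously defined criteria.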

southern crabgrass [5] = assay: Test Example 4: herbicidal effect by soil treatment (Table 19, symbol F); format: in vivo, southern crabgrass (Digitaria ciliaris)
Procedure, shortened: as §1

southern crabgrass [6] = assay: Test Example 5: herbicidal effect by foliage application, plastic box (Table 20, symbol F); format: in vivo, southern crabgrass (Digitaria ciliaris); conditions: evaluated three weeks after application
Procedure, shortened: as §2

redroot pigweed [7] = assay: Test Example 4: herbicidal effect by soil treatment (Table 19, symbol N); format: in vivo, redroot pigweed (Amaranthus retroflexus)
Procedure, shortened: as §1

green foxtail [8] = assay: Test Example 4: herbicidal effect by soil treatment (Table 19, symbol G); format: in vivo, green foxtail (Setaria viridis)
Procedure, shortened: as §1

wild oat [9] = assay: Test Example 4: herbicidal effect by soil treatment (Table 19, symbol I); format: in vivo, wild oat (Avena fatua)
Procedure, shortened: as §1

blackgrass [10] = assay: Test Example 4: herbicidal effect by soil treatment (Table 19, symbol J); format: in vivo, blackgrass (Alopecurus myosuroides)
Procedure, shortened: as §1

green foxtail [11] = assay: Test Example 5: herbicidal effect by foliage application, plastic box (Table 20, symbol G); format: in vivo, green foxtail (Setaria viridis); conditions: evaluated three weeks after application
Procedure, shortened: as §2

barnyard grass [12] = assay: Test Example 4: herbicidal effect by soil treatment (Table 19, symbol H); format: in vivo, barnyard grass (Echinochloa crus-galli)
Procedure, shortened: as §1

redroot pigweed [13] = assay: Test Example 5: herbicidal effect by foliage application, plastic box (Table 20, symbol N); format: in vivo, redroot pigweed (Amaranthus retroflexus); conditions: evaluated three weeks after application
Procedure, shortened: as §2

persian speedwell = assay: Test Example 5: herbicidal effect by foliage application, plastic box (Table 20, symbol R); format: in vivo, Persian speedwell (Veronica persica); conditions: evaluated three weeks after application
Procedure, shortened: as §2

Italian ryegrass [14] = assay: Test Example 4: herbicidal effect by soil treatment (Table 19, symbol K); format: in vivo, Italian ryegrass (Lolium multiflorum)
Procedure, shortened: as §1

windgrass [15] = assay: Test Example 5: herbicidal effect by foliage application, plastic box (Table 20, symbol L); format: in vivo, windgrass (Apera spica-venti); conditions: evaluated three weeks after application
Procedure, shortened: as §2

barnyard grass [16] = assay: Test Example 5: herbicidal effect by foliage application, plastic box (Table 20, symbol H); format: in vivo, barnyard grass (Echinochloa crus-galli); conditions: evaluated three weeks after application
Procedure, shortened: as §2

lambsquarters [17] = assay: Test Example 5: herbicidal effect by foliage application, plastic box (Table 20, symbol O); format: in vivo, lambsquarters (Chenopodium album); conditions: evaluated three weeks after application
Procedure, shortened: as §2

lambsquarters [18] = assay: Test Example 4: herbicidal effect by soil treatment (Table 19, symbol O); format: in vivo, lambsquarters (Chenopodium album)
Procedure, shortened: as §1

velvetleaf [19] = assay: Test Example 4: herbicidal effect by soil treatment (Table 19, symbol M); format: in vivo, velvetleaf (Abutilon theophrasti)
Procedure, shortened: as §1

barnyard grass [20] = assay: Test Example 3: herbicidal effect by foliage application, Wagner pot (Table 18, symbol H); format: in vivo, barnyard grass (Echinochloa crus-galli)
Procedure, shortened: as §3

rice flat sedge = assay: Test Example 3: herbicidal effect by foliage application, Wagner pot (Table 18, symbol E); format: in vivo, rice flat sedge (Cyperus iria)
Procedure, shortened: as §3

Italian ryegrass [21] = assay: Test Example 5: herbicidal effect by foliage application, plastic box (Table 20, symbol K); format: in vivo, Italian ryegrass (Lolium multiflorum); conditions: evaluated three weeks after application
Procedure, shortened: as §2

chickweed = assay: Test Example 5: herbicidal effect by foliage application, plastic box (Table 20, symbol P); format: in vivo, common chickweed (Stellaria media); conditions: evaluated three weeks after application
Procedure, shortened: as §2

[22] = amount of applied herbicide 310 g/ha
[23] = foliage application, AAH 310 g/ha
[24] = amount of applied herbicide 320 g/ha
[25] = 320 g/ha, foliage application after 14-day growth

## Cc1nn(C)c(=O)c(-c2c(-c3ccc(OC(F)F)cc3)sc3ccc(F)cc23)c1OC(=S)Oc1ccccc1 [2-297]
False cleavers; [22]
  herbicidal effect on Q: false cleavers: 0 (Herbicidal rate of 5% or less (almost no effect))
Windgrass [1]; [22]
  herbicidal effect on L: windgrass: 0 (Herbicidal rate of 5% or less (almost no effect))
Wild oat [2]; [23]
  I: wild oat, herbicidal effect (criteria 0-5): 2 (Herbicidal rate of 20% or more and less than 40%)
Velvetleaf [3]; [23]
  M: velvetleaf, herbicidal effect (criteria 0-5): 5 (Herbicidal rate of 90% or more (almost completely withered))
Blackgrass [4]; [23]
  J: blackgrass, herbicidal effect (criteria 0-5): 3 (Herbicidal rate of 40% or more and less than 70%)
Chinese sprangletop; [22]
  herbicidal effect on D: Chinese sprangletop: 0 (Herbicidal rate of 5% or less (almost no effect))
Southern crabgrass [5]; [22]
  herbicidal effect on F: southern crabgrass: 3 (Herbicidal rate of 40% or more and less than 70%)
Southern crabgrass [6]; [23]
  F: southern crabgrass, herbicidal effect (criteria 0-5): 1 (Herbicidal rate of 5% or more and less than 20%)
Redroot pigweed [7]; [22]
  herbicidal effect on N: redroot pigweed: 5 (Herbicidal rate of 90% or more (almost completely withered))
Green foxtail [8]; [22]
  herbicidal effect on G: green foxtail: 4 (Herbicidal rate of 70% or more and less than 90%)
Wild oat [9]; [22]
  herbicidal effect on I: wild oat: 0 (Herbicidal rate of 5% or less (almost no effect))
Blackgrass [10]; [22]
  herbicidal effect on J: blackgrass: 3 (Herbicidal rate of 40% or more and less than 70%)
Green foxtail [11]; [23]
  G: green foxtail, herbicidal effect (criteria 0-5): 5 (Herbicidal rate of 90% or more (almost completely withered))
Barnyard grass [12]; [22]
  herbicidal effect on H: barnyard grass: 4 (Herbicidal rate of 70% or more and less than 90%)
Redroot pigweed [13]; [23]
  N: redroot pigweed, herbicidal effect (criteria 0-5): 5 (Herbicidal rate of 90% or more (almost completely withered))
Persian speedwell; [23]
  R: persian speedwell, herbicidal effect (criteria 0-5): 5 (Herbicidal rate of 90% or more (almost completely withered))
Italian ryegrass [14]; [22]
  herbicidal effect on K: Italian ryegrass: 5 (Herbicidal rate of 90% or more (almost completely withered))
Windgrass [15]; [23]
  L: windgrass, herbicidal effect (criteria 0-5): 0 (Herbicidal rate of 5% or less (almost no effect))
Barnyard grass [16]; [23]
  H: barnyard grass, herbicidal effect (criteria 0-5): 5 (Herbicidal rate of 90% or more (almost completely withered))
Lambsquarters [17]; [23]
  O: lambsquarters, herbicidal effect (criteria 0-5): 5 (Herbicidal rate of 90% or more (almost completely withered))
Lambsquarters [18]; [22]
  herbicidal effect on O: lambsquarters: 5 (Herbicidal rate of 90% or more (almost completely withered))
Velvetleaf [19]; [22]
  herbicidal effect on M: velvetleaf: 5 (Herbicidal rate of 90% or more (almost completely withered))
Barnyard grass [20]; [22]
  herbicidal effect on H: barnyard grass: 5 (Herbicidal rate of 90% or more (almost completely withered))
Rice flat sedge; [22]
  herbicidal effect on E: rice flat sedge: 5 (Herbicidal rate of 90% or more (almost completely withered))
Italian ryegrass [21]; [23]
  K: Italian ryegrass, herbicidal effect (criteria 0-5): 5 (Herbicidal rate of 90% or more (almost completely withered))
chickweed; [23]
  P: chickweed, herbicidal effect (criteria 0-5): 5 (Herbicidal rate of 90% or more (almost completely withered))

## Cc1nn(C)c(=O)c(-c2c(-c3ccc(Cl)cc3)sc3c(Cl)cccc23)c1O [4-017]
False cleavers; [24]
  Herbicidal effect by soil treatment, Q: false cleavers: 0 (Herbicidal rate of 5% or less (almost no effect))
Windgrass [1]; [24]
  Herbicidal effect by soil treatment, L: windgrass: 2 (Herbicidal rate of 20% or more and less than 40%)
Wild oat [2]; [25]
  herbicidal effect on I: wild oat (evaluation grade 0-5): 3 (Herbicidal rate of 40% or more and less than 70%)
Velvetleaf [3]; [25]
  herbicidal effect on M: velvetleaf (evaluation grade 0-5): 4 (Herbicidal rate of 70% or more and less than 90%)
Blackgrass [4]; [25]
  herbicidal effect on J: blackgrass (evaluation grade 0-5): 3 (Herbicidal rate of 40% or more and less than 70%)
Chinese sprangletop; 320 g/ha
  herbicidal effect on Chinese sprangletop (D): 0 (Herbicidal rate of 5% or less (almost no effect))
Southern crabgrass [5]; [24]
  Herbicidal effect by soil treatment, F: southern crabgrass: 0 (Herbicidal rate of 5% or less (almost no effect))
Southern crabgrass [6]; [25]
  herbicidal effect on F: southern crabgrass (evaluation grade 0-5): 0 (Herbicidal rate of 5% or less (almost no effect))
Redroot pigweed [7]; [24]
  Herbicidal effect by soil treatment, N: redroot pigweed: 0 (Herbicidal rate of 5% or less (almost no effect))
Green foxtail [8]; [24]
  Herbicidal effect by soil treatment, G: green foxtail: 0 (Herbicidal rate of 5% or less (almost no effect))
Wild oat [9]; [24]
  Herbicidal effect by soil treatment, I: wild oat: 0 (Herbicidal rate of 5% or less (almost no effect))
Blackgrass [10]; [24]
  Herbicidal effect by soil treatment, J: blackgrass: 0 (Herbicidal rate of 5% or less (almost no effect))
Green foxtail [11]; [25]
  herbicidal effect on G: green foxtail (evaluation grade 0-5): 0 (Herbicidal rate of 5% or less (almost no effect))
Barnyard grass [12]; [24]
  Herbicidal effect by soil treatment, H: barnyard grass: 0 (Herbicidal rate of 5% or less (almost no effect))
Redroot pigweed [13]; [25]
  herbicidal effect on N: redroot pigweed (evaluation grade 0-5): 5 (Herbicidal rate of 90% or more (almost completely withered))
Persian speedwell; [25]
  herbicidal effect on R: persian speedwell (evaluation grade 0-5): 4 (Herbicidal rate of 70% or more and less than 90%)
Italian ryegrass [14]; [24]
  Herbicidal effect by soil treatment, K: Italian ryegrass: 0 (Herbicidal rate of 5% or less (almost no effect))
Windgrass [15]; [25]
  herbicidal effect on L: windgrass (evaluation grade 0-5): 4 (Herbicidal rate of 70% or more and less than 90%)
Barnyard grass [16]; [25]
  herbicidal effect on H: barnyard grass (evaluation grade 0-5): 0 (Herbicidal rate of 5% or less (almost no effect))
Lambsquarters [17]; [25]
  herbicidal effect on O: lambsquarters (evaluation grade 0-5): 2 (Herbicidal rate of 20% or more and less than 40%)
Lambsquarters [18]; [24]
  Herbicidal effect by soil treatment, O: lambsquarters: 0 (Herbicidal rate of 5% or less (almost no effect))
Velvetleaf [19]; [24]
  Herbicidal effect by soil treatment, M: velvetleaf: 0 (Herbicidal rate of 5% or less (almost no effect))
Barnyard grass [20]; 320 g/ha
  herbicidal effect on barnyard grass (H): 4 (Herbicidal rate of 70% or more and less than 90%)
Rice flat sedge; 320 g/ha
  herbicidal effect on rice flat sedge (E): 3 (Herbicidal rate of 40% or more and less than 70%)
Italian ryegrass [21]; [25]
  herbicidal effect on K: Italian ryegrass (evaluation grade 0-5): 1 (Herbicidal rate of 5% or more and less than 20%)
chickweed; [25]
  herbicidal effect on P: chickweed (evaluation grade 0-5): 5 (Herbicidal rate of 90% or more (almost completely withered))
